Starred links: 1 amine or outer side, 2 acyl side, 3 side chain; linkers in the order of their positions; H or OH if unused. Positions of bridges follow the written chain, without caps; N, C: chain ends. Non-standard residues stand in square brackets, D forms with d. Residues, ends and D or L forms follow the SMILES beside them. *: point of attachment. Glu(NHSO2Me) = CS(=O)(=O)NC(=O)CC[C@H](N)C(=O)O; 3Pal(6-NMe2) = CN(C)c1ccc(C[C@H](N)C(=O)O)cn1; NMePhe(3-Cl) = CN[C@@H](Cc1cccc(Cl)c1)C(=O)O; Ala(4-thiazolyl) = N[C@@H](Cc1cscn1)C(=O)O; NMeW = CN[C@@H](Cc1c[nH]c2ccccc12)C(=O)O; NMehPhe = CN[C@@H](CCc1ccccc1)C(=O)O; Ethyl(2-morpholino) = C1CN(CC*)CCO1; Gly(NCH2CH2Ph) = O=C(O)CNCCc1ccccc1; N(isopentyl)Gly = CC(C)CCNCC(=O)O; NMeF = CN[C@@H](Cc1ccccc1)C(=O)O; NMeGABA = CN(CCCC(=O)[*:2])[*:1]; NMeI = CC[C@H](C)[C@H](NC)C(=O)O; Butyl(3-Me,3-OH) = CC(C)(O)CC*; NMeL = CN[C@@H](CC(C)C)C(=O)O; dNMeL = CN[C@H](CC(C)C)C(=O)O; Propyl(2R-OH) = C[C@@H](O)C*; NMeV = CN[C@H](C(=O)O)C(C)C; NMeAbu = CC[C@H](NC)C(=O)O; NMeS = CN[C@@H](CO)C(=O)O; NMeA = CN[C@@H](C)C(=O)O; Piperidide = C1CCN(*)CC1; CH2CMe2OH = CC(C)(O)C*; NBuGly = CCCCNCC(=O)O; NPrGly = CCCNCC(=O)O; Sar = CNCC(=O)O; tBu = CC(C)(C)*; Propyl = CCC*
Assay: Caco-2 membrane permeability, improved method as used in the following Examples (96-well, 20 to 24 h preincubation)
Format: in vitro ADME
Details: human, Caco-2, Caco-2
Experimental: In the following Examples, membrane permeability was measured in accordance with the improved method established as described above. Specifically, Caco-2 cells were cultured on a 96-well Transwell for three weeks, after which DMEM+FaSSIF (1% DMSO)+compound were added to the apical side and DMEM was added to the basal side, and the cells were preincubated at 5% CO2, 37° C., and 80 rpm for 20 to 24 hours. Following the preincubation, measurement of membrane permeability was initiated by removing the preincubation solution on the apical and basal sides by suction, washing the membrane, and adding FaSSIF/HBSS buffer (1% DMSO) (pH 6.0) containing the compound to the apical side and HBSS buffer (4% BSA) (pH 7.4) to the basal side. Each well was shaken at 5% CO2, 37° C., and 80 rpm, and 180 minutes after the initiation, the sample on the basal side was collected and the permeation amount was measured by LC/MS. The membrane permeability coefficient (Papp) was calculated from the permeation amount. Herein, the terms “Caco-2 (cm/sec)” in the columns in the tables and “Papp (cm/sec)” are used in the same meaning.

`CC(C)C[C@@H]1NC(=O)[C@H](Cc2ccccc2)N(C)C(=O)[C@@H](C(C)C)NC(=O)C[C@@H](C(=O)N2CCCCC2)NC(=O)[C@H](CC(C)C)N(C)C(=O)[C@H](Cc2cccc(Cl)c2)N(C)C(=O)[C@H](COCCC(C)(C)O)NC(=O)[C@H](CC(C)C)N(C)C(=O)CN(C)C(=O)[C@H]([C@@H](C)O)NC(=O)[C@H](C(C)C)N(C)C1=O` [pd434] ([dV][NMeF]L[NMeV]T[Sar][NMeL]S(Butyl(3-Me,3-OH))[NMePhe(3-Cl)][NMeL]D-Piperidide; lactam N-11) and `CCCN1CC(=O)N(C)[C@@H](CC(C)C)C(=O)N[C@@H](COCC(C)(C)O)C(=O)N(C)[C@@H](Cc2ccccc2)C(=O)N(C)[C@@H](CC(C)C)C(=O)N[C@H](C(=O)N2CCCCC2)CC(=O)N[C@H](C(C)C)C(=O)N(C)[C@@H](Cc2ccccc2)C(=O)N[C@@H](CC(C)C)C(=O)N(C)[C@@H](CC(C)C)C(=O)N[C@@H]([C@@H](C)O)C1=O` [pd432] ([dV][NMeF]L[NMeL]T[NPrGly][NMeL]S(CH2CMe2OH)[NMeF][NMeL]D-Piperidide; lactam N-11) are within 1.5-fold of each other in Papp A→B at 180 min: 1.7 ×10⁻⁶ cm/s for the first, 1.5 ×10⁻⁶ cm/s for the second.

Going from `CC[C@H](C)[C@@H]1NC(=O)[C@H](CC(C)C)N(C)C(=O)CN(C)C(=O)C[C@@H](C(=O)N2CCCCC2)NC(=O)[C@H](CC(C)C)N(C)C(=O)[C@@H](COC(C)(C)C)NC(=O)[C@H](CC)N(C)C(=O)[C@H](Cc2ccccc2)N(C)C(=O)CN(CCc2ccccc2)C(=O)[C@H]([C@@H](C)O)NC(=O)[C@H](CC)N(C)C1=O` [pd411] ([Sar][NMeL]I[NMeAbu]T[Gly(NCH2CH2Ph)][NMeF][NMeAbu][dS](tBu)[NMeL]D-Piperidide; lactam N-11) to `CC[C@H]1C(=O)N[C@@H]([C@@H](C)O)C(=O)N(C)CC(=O)N(C)[C@@H](CC(C)C)C(=O)N[C@@H](CC(C)C)C(=O)N(C)[C@@H](Cc2ccccc2)C(=O)N(C)[C@@H](CC(C)C)C(=O)N[C@H](C(=O)N2CCCCC2)CC(=O)N[C@H](C(C)C)C(=O)N(C)[C@@H](CCc2ccccc2)C(=O)N[C@@H](CC(C)C)C(=O)N1C` [pd320] ([dV][NMehPhe]L[NMeAbu]T[Sar][NMeL]L[NMeF][NMeL]D-Piperidide; lactam N-11), the Papp A→B at 180 min falls from 3.3 ×10⁻⁶ cm/s to 1.7 ×10⁻⁶ cm/s (1.9-fold).

Compared with `CCCOC[C@H]1C(=O)N[C@@H](Cc2ccc(N(C)C)nc2)C(=O)N(C)[C@@H](Cc2cccc(Cl)c2)C(=O)N(C)[C@@H](C)C(=O)N[C@@H]([C@@H](C)O)C(=O)N(CCC(C)C)CC(=O)N(C)[C@@H](C(C)C)C(=O)N[C@H](C(=O)N2CCCCC2)CC(=O)N(C)[C@@H](C)C(=O)N[C@@H](CC(C)C)C(=O)N(C)[C@@H](CC(C)C)C(=O)N1C` [pd401] ([NMeA]L[NMeL][NMeS](Propyl)[3Pal(6-NMe2)][NMePhe(3-Cl)][NMeA]T[N(isopentyl)Gly][NMeV]D-Piperidide; lactam N-11), `CCCCN1CC(=O)N(C)[C@@H](C)C(=O)N[C@H](C(=O)N2CCCCC2)CC(=O)N(C)[C@@H](C(C)C)C(=O)N[C@@H](CC(C)C)C(=O)N(C)[C@@H](CC(C)C)C(=O)N(C)[C@@H](Cc2cccc(Cl)c2)C(=O)N[C@@H](Cc2ccc(N(C)C)nc2)C(=O)N(C)[C@@H](C)C(=O)N(C)[C@@H](CC(C)C)C(=O)N[C@@H]([C@@H](C)O)C1=O` [pd399] ([NMeV]L[NMeL][NMePhe(3-Cl)][3Pal(6-NMe2)][NMeA][NMeL]T[NBuGly][NMeA]D-Piperidide; lactam N-11) is 1.9-fold lower in Papp A→B at 180 min: 2.9 ×10⁻⁶ cm/s for the first, 1.5 ×10⁻⁶ cm/s for the second.

Going from `CC(C)C[C@@H]1NC(=O)[C@H](CC(C)C)N(C)C(=O)CCCN(C)C(=O)C[C@@H](C(=O)N2CCCCC2)NC(=O)[C@H](CC(C)C)N(C)C(=O)[C@H](CC(C)C)N(C)C(=O)[C@H](CC(C)C)NC(=O)[C@H](CC(C)C)N(C)C(=O)[C@H](CCC(=O)NS(C)(=O)=O)NC(=O)[C@H](Cc2ccccc2)N(C)C(=O)[C@H](Cc2ccccc2)N(C)C1=O` [pd68] ([NMeGABA][NMeL]L[NMeF][NMeF][Glu(NHSO2Me)][NMeL]L[NMeL][NMeL]D-Piperidide; lactam N-11) to `CC[C@H](C)[C@H]1C(=O)N[C@@H](C(C)C)C(=O)N(C)CC(=O)N(C)[C@@H](CC(C)C)C(=O)N[C@H](C(=O)N2CCCCC2)CC(=O)N(C)[C@@H](C)C(=O)N[C@@H](COC[C@@H](C)O)C(=O)N(C)[C@H](CC(C)C)C(=O)N(C)[C@@H](Cc2ccccc2)C(=O)N[C@@H](CC(C)C)C(=O)N(C)[C@@H](Cc2ccccc2)C(=O)N1C` [pd495] ([NMeA]S(Propyl(2R-OH))[dNMeL][NMeF]L[NMeF][NMeI]V[Sar][NMeL]D-Piperidide; lactam N-11), the Papp A→B at 180 min rises from 0.1 ×10⁻⁶ cm/s to 3.7 ×10⁻⁶ cm/s (37-fold).

Going from `CCCOC[C@@H]1NC(=O)[C@H](CC(C)C)N(C)C(=O)[C@H](C(C)C)NC(=O)[C@H](Cc2ccccc2)N(C)C(=O)[C@@H](C(C)C)NC(=O)C[C@@H](C(=O)N2CCCCC2)NC(=O)[C@H](C)N(C)C(=O)[C@H](Cc2ccccc2)N(C)C(=O)[C@H](COC(C)(C)C)NC(=O)[C@H](CC(C)C)N(C)C(=O)CN(C)C1=O` [pd326] ([dV][NMeF]V[NMeL]S(Propyl)[Sar][NMeL]S(tBu)[NMeF][NMeA]D-Piperidide; lactam N-11) to `CC(C)CCN1CC(=O)N(C)[C@@H](CC(C)C)C(=O)N[C@@H](COC(C)(C)C)C(=O)N(C)[C@@H](Cc2ccccc2)C(=O)N(C)[C@@H](C(C)C)C(=O)N[C@H](C(=O)N2CCCCC2)CC(=O)N[C@H](C)C(=O)N(C)[C@@H](CC(C)C)C(=O)N[C@@H](Cc2ccc(N(C)C)nc2)C(=O)N(C)[C@@H](CC(C)C)C(=O)N[C@@H]([C@@H](C)O)C1=O` [pd396] ([dA][NMeL][3Pal(6-NMe2)][NMeL]T[N(isopentyl)Gly][NMeL]S(tBu)[NMeF][NMeV]D-Piperidide; lactam N-11), the Papp A→B at 180 min falls from 3.3 ×10⁻⁶ cm/s to 1.5 ×10⁻⁶ cm/s (2.2-fold).

`CC[C@H](C)[C@@H]1NC(=O)[C@H](CC(C)C)N(C)C(=O)CCCN(C)C(=O)C[C@@H](C(=O)N2CCCCC2)NC(=O)[C@H](CC(C)C)N(C)C(=O)[C@H](CC(C)C)N(C)C(=O)[C@H](COCCN2CCOCC2)NC(=O)[C@H](CC(C)C)N(C)C(=O)[C@H](COC(C)(C)C)NC(=O)[C@H](CC)N(C)C(=O)[C@H](Cc2ccccc2)N(C)C1=O` [pd485] ([NMeGABA][NMeL]I[NMeF][NMeAbu]S(tBu)[NMeL]S(Ethyl(2-morpholino))[NMeL][NMeL]D-Piperidide; lactam N-11) gave a Papp A→B at 180 min of 1.2 ×10⁻⁶ cm/s.

Same assay, conditions: human, Caco-2, Caco-2 (cm/sec)

`CC[C@H](C)[C@H]1C(=O)N[C@@H](Cc2ccc(O)cc2)C(=O)N(C)CC(=O)N(C)[C@@H](CC(C)C)C(=O)N[C@H](C(=O)N2CCCCC2)CC(=O)N(C)[C@@H](C)C(=O)N[C@@H](C(C)C)C(=O)N(C)[C@@H](CC(C)C)C(=O)N(C)[C@@H](CC(C)C)C(=O)N[C@@H](C)C(=O)N(C)[C@@H](Cc2ccccc2)C(=O)N1C` [pd126] ([NMeA]V[NMeL][NMeL]A[NMeF][NMeI]Y[Sar][NMeL]D-Piperidide; lactam N-11) and `CC(C)C[C@H]1C(=O)N(C)[C@@H](CC(C)C)C(=O)N(C)[C@@H](Cc2c[nH]c3ccccc23)C(=O)N[C@@H]([C@@H](C)O)C(=O)N(C)[C@@H](C)C(=O)N(C)[C@@H](CC(C)C)C(=O)N[C@H](C(=O)N2CCCCC2)CC(=O)N(C)[C@@H](C)C(=O)N(C)[C@@H](CC(C)C)C(=O)N(C)[C@@H](CC(C)C)C(=O)N[C@@H](C)C(=O)N1C` [pd105] ([NMeA][NMeL][NMeL]A[NMeL][NMeL][NMeW]T[NMeA][NMeL]D-Piperidide; lactam N-11) are within 1.5-fold of each other in Papp A→B at 180 min: 0.42 ×10⁻⁶ cm/s for the first, 0.28 ×10⁻⁶ cm/s for the second.

Going from `CC(C)C[C@@H]1NC(=O)[C@H](CC(C)C)N(C)C(=O)[C@H](CC(C)C)N(C)C(=O)CNC(=O)[C@H](Cc2ccccc2)N(C)C(=O)[C@H](Cc2cscn2)NC(=O)[C@H](CC(C)C)N(C)C(=O)[C@H](Cc2ccccc2)NC(=O)[C@H](C)NC(=O)C[C@@H](C(=O)N(C)[C@@H](Cc2ccccc2)C(=O)N[C@@H](C)C(=O)N2CCCCC2)NC1=O` [pd235] (AF[NMeL][Ala(4-thiazolyl)][NMeF]G[NMeL][NMeL]LD[NMeF]A-Piperidide; lactam N-10) to `CC(C)C[C@@H]1NC(=O)[C@H](CC(C)C)N(C)C(=O)[C@H](C)N(C)C(=O)C[C@@H](C(=O)N(C)[C@@H](Cc2ccccc2)C(=O)N[C@@H](C)C(=O)N2CCCCC2)NC(=O)[C@H]([C@@H](C)O)NC(=O)[C@H](CC(C)C)N(C)C(=O)[C@H](Cc2ccccc2)NC(=O)[C@H](Cc2ccccc2)N(C)C(=O)[C@H](CC(C)C)N(C)C1=O` [pd218] ([NMeA][NMeL]L[NMeL][NMeF]F[NMeL]TD[NMeF]A-Piperidide; lactam N-9), the Papp A→B at 180 min rises from 0.1 ×10⁻⁶ cm/s to 1.1 ×10⁻⁶ cm/s (11-fold).

Going from `CC(C)C[C@@H]1NC(=O)[C@H](Cc2ccccc2)N(C)C(=O)[C@H](COC(C)(C)C)NC(=O)[C@H](Cc2ccccc2)N(C)C(=O)[C@H](C)N(C)C(=O)[C@H](CC(C)C)N(C)C(=O)[C@@H]2CCCN2C(=O)N[C@@H](C(=O)N2CCCCC2)NC(=O)[C@H](Cc2ccccc2)N(C)C(=O)[C@H]([C@@H](C)O)NC(=O)[C@H](CC(C)C)N(C)C1=O` [pd214] to `CC(C)C[C@H]1C(=O)N(C)[C@@H](Cc2ccccc2)C(=O)N(C)[C@@H](Cc2ccccc2)C(=O)N[C@@H]([C@@H](C)O)C(=O)N(C)[C@@H](C)C(=O)N(C)[C@@H](Cc2ccccc2)C(=O)N[C@H](C(=O)N2CCCCC2)CC(=O)N(C)[C@@H](C)C(=O)N(C)[C@@H](Cc2ccccc2)C(=O)N(C)[C@@H](CC(C)C)C(=O)N[C@@H](C(C)C)C(=O)N1C` [pd233] ([NMeA][NMeF][NMeL]V[NMeL][NMeF][NMeF]T[NMeA][NMeF]D-Piperidide; lactam N-11), the Papp A→B at 180 min falls from 1.2 ×10⁻⁶ cm/s to 0.17 ×10⁻⁶ cm/s (7.1-fold).

Reference: patent US20200131669A1, “CYCLIC PEPTIDE COMPOUND HAVING HIGH MEMBRANE PERMEABILITY, AND LIBRARY CONTAINING SAME” (Chugai Seiyaku Kabushiki Kaisha, priority 2017, published 2020)
